Results: patent US6227295A, “High temperature hydraulic fracturing fluid” (Schlumberger Technology Corporation, priority 1999, dated 2001)
“And” between values parts separate entries of the source, which are not always exact repeats. Identical values can stand only once. Like-named read-outs stand apart in the source and are kept apart here.

Columns and labels:
[1] = cited from earlier work
[2] = pH of organic amine stabilizers (Table 1, mostly determined experimentally); assay type: physicochemical; conditions: pH in water, some from the literature
Description: The fluid also comprises an organic amine stabilizing agent that has a first pKa or a pH in water of at least about 9.5. The organic amine preferably has from 1-20 carbon atoms, more preferably 1-10 carbon atoms. In one particularly preferred embodiment, the organic amine has the formula: […]
Table 1 below lists a number of organic amines that can be used as stabilizers in the present invention. The pKa values in the table are from the literature; the pH values in the table were mostly determined experimentally, although some were taken from the literature.

[3] = Typical pH of fracturing fluid with TEPA as the stabilizer; assay type: physicochemical; conditions: TEPA used as the stabilizer
Description: where R1 is C1 -C4 alkyl and n is from 1-6. Preferably R1 is ethylene and n is 4. This preferred amine, tetraethylenepentamine (TEPA), is available from Dow Chemical.

[4] = Viscosity retention of CMHPG linear gels after aging at 325° F. (Example 1, Table 2); assay type: physicochemical; conditions: TEPA 5 gpt, no secondary additive
Method: Aqueous polymer solutions were aged in an air oven at elevated temperatures, and their viscosity was measured before and after the aging. […] The base gels were made in 1 liter quantities, and stored in Nalgene-type plastic bottles. The viscosity of each batch of base gel was measured at 70° F. on a Contraves LS-30 viscometer to establish the baseline for that batch.

| SMILES | pKa [1] | pH [2] | other results |
| --- | --- | --- | --- |
| CC(N)CN (stereo not drawn) [1,2-diaminopropane] | 9.8 |  | pKa ([1]; second value): 6.6 |
| NCCCN [1,3-diaminopropane] | 10.9 |  | pKa ([1]; second value): 9.0 |
| NCCCCN [1,4-diaminobutane] | 11.2 |  | pKa ([1]; second value): 9.7 |
| NCCCNCCNCCCN [BAPED, N,N'-bis(3-aminopropyl)ethylene-diamine] |  | 11.72 |  |
| CCCCCCCCCCCCN [DDA, dodecylamine] |  | 10.22 |  |
| CCN(O)CC [DHA, N,N-diethylhydroxylamine] |  | 11.06 |  |
| CC(COCCCN)COCCCN [DPA-12, di-(gamma-aminopropylether) of 2-methyl-1,3-propane diol] |  | 11.41 |  |
| NCCCOCCOCCCN [NDPA-10, di-(gamma-aminopropylether) of ethylene glycol] |  | 11.58 |  |
| NCCCOCCCCOCCCN [NDPA-12, di-(gamma-aminopropylether) of 1,4-butane diol] |  | 11.55 |  |
| NCCN(CCN)CCN [TAA, tris-(2-aminoethyl)amine] |  | 11.25 |  |
| NCCNCCN [diethylenetriamine] |  | 11.42 |  |
| NCCN [ethylenediamine] | 10.7 |  | pKa ([1]; second value): 7.6 |
| NCCCCCCN [hexamethylenediamine] | 11.9 |  |  |
| CCCCN [n-butylamine] | 10.8 |  |  |
| CCCCCCCCCCN [n-decylamine] | 10.6 |  |  |
| NCCNCCNCCNCCN [tetraethylenepentamine] |  | 11.29 | pH of the fluid [3]: about 10.8; % of initial viscosity after 2 hrs. ([4]; 325° F.): 93% and 63%; pH (Comments) [4]: 11.50 |
| NCCCCN [tetramethylenediamine] | 10.7 |  |  |
